Measured values reported in patent US10925881B2, “Treatment of conditions associated with hyperinsulinaemia” (Tensha Therapeutics, Inc., priority 2014, dated 2021).
Read-outs that look alike come from different tables or passages of the source.

What was measured:
BRD4(2) = BRD4(2) (Homo sapiens (Human), UniProt O60885); experiment: Alpha-assay binding, BRD4 site 2; conditions: for binding activity with the BRD4 site 2: result in words
BRD4(1) = BRD4(1) (Homo sapiens (Human), UniProt O60885); experiment: Alpha-assay binding, BRD4 site 1; conditions: for binding activity with the BRD4 site 1: result in words
Procedure: The binding activity of lead compounds with the BRD4 site 1 was determined by Alpha-assay with a 12-point dose response curve.

RIN-5F = experiment: Cell Titer-Glo rat insulinoma cell assay, RIN-5F; assay type: cell-based; conditions: cell viability after 168-192 total hours of culture
Procedure: (§1) Paclitaxel was used as a positive control.
(§2) Cells were seeded at 5000 cells per well in a 96-well microculture plate in a total volume of 100 μl/well and incubated for 24 hours. […] The concentrations tested for paclitaxel were, 10 μM, 2.5 μM, 0.625 μM, 0.156 μM, 0.0391 μM, 0.00977 μM, 0.00244 μM, 0.000610 μM, 0.000153 μM, and 0.0000381 μM. Duplicate data for RIN-5F was obtained where the test concentrations for paclitaxel were, 1 μM, 0.25 μM, 0.0625 μM, 0.0156 μM, 0.00391 μM, 0.000977 μM, 0.000244 μM, 0.0000610 μM, 0.0000153 μM, and 0.00000381 μM. After 168-192 total hours of culture 100 μl of media was removed from each well and 50 μl of Cell Titer-Glo (Promega #G7571) was added to each well. The plate was shaken for 2 minutes and allowed to equilibrate for 10 minutes. Luminescence was measured on a Tecan GENios microplate reader. Percent inhibition of cell viability was calculated relative to untreated control wells. All tests were performed in triplicate or quadruplicates at each concentration level. IC50 values were calculated using Prism 6.00 curve-fitting with a four parameter-logistic equation.
(§3) Cells were seeded at 5000 cells per well in a 96-well microculture plate in a total volume of 100 μl/well and incubated for 24 hours. […] After 168-192 total hours of culture 100 μl of media was removed from each well and 50 μl of Cell Titer-Glo (Promega #G7571) was added to each well. The plate was shaken for 2 minutes and allowed to equilibrate for 10 minutes. Luminescence was measured on a Tecan GENios microplate reader. Percent inhibition of cell viability was calculated relative to untreated control wells. All tests were performed in triplicate or quadruplicates at each concentration level. IC50 values were calculated using Prism 6.00 curve-fitting with a four parameter-logistic equation.

RIN-m5F = experiment: Cell Titer-Glo rat insulinoma cell assay, RIN-m5F; assay type: cell-based
Procedure: as §1, §2, §3

RIN-14B = experiment: Cell Titer-Glo rat insulinoma cell assay, RIN-14B; assay type: cell-based
Procedure: as §1, §2, §3

[1] = tested on: four rat insulinoma (RIN) cell lines, RIN-14B, RIN-m5F, RIN-m, and RIN-5; experiment: Cell Titer-Glo rat insulinoma cell assay, statement for all four cell lines; assay type: cell-based; conditions: for cell viability at higher concentrations: cytotoxic effect; for IC50: read-out: IC50 values, all cell lines
Procedure: as §1
(§4) The plate was shaken for 2 minutes and allowed to equilibrate for 10 minutes. Luminescence was measured on a Tecan GENios microplate reader. Percent inhibition of cell viability was calculated relative to untreated control wells. All tests were performed in triplicate or quadruplicates at each concentration level. IC50 values were calculated using Prism 6.00 curve-fitting with a four parameter-logistic equation.
as §4

RIN-m = experiment: Cell Titer-Glo rat insulinoma cell assay, RIN-m; assay type: cell-based
Procedure: as §1, §2, §3

[2] = at least one biological assay (not specified)
[3] = tested on: RIN-m5F rat insulinoma cells; experiment: RNA-Seq expression analysis of JQ1 treated RIN-m5F insulinoma cells; assay type: cell-based; conditions: 500 nM, 24 hr; result in words
Procedure: As shown below, BET inhibition disrupts both oncogenic and pancreatic islet cell transcriptional profiles.
Cells were scraped and total RNA was extracted and purified using a Qiagen RNeasy Mini Kit (cat. 74104) as described in the manufacturer's protocol. […] For each sample, 4 μg of total RNA was then used in Illumina's TruSeq RNA sample preparation V2 kit. […] Libraries were sequenced on Illumina NextSeq 500 as paired-end 75-nt reads.
Sequence reads were analyzed with the TopHat—Cufflinks software pipeline. Average size of library molecules was 400 bp, therefore the—r parameter was set to […]. (Versions were: TopHat v2.0.9, Bowtie 2.1.0.0, Cufflinks v2.1.1). The rat (rn5) gene reference GTF file was obtained from Illumina iGenomes.

Cc1sc2c(c1C)C(c1ccc(Cl)cc1)=N[C@@H](CC(=O)NCCN1CCOCC1)c1nnc(C)n1-2 (stereo in doubt) [(S)-JQ33]
IC50 (BRD4(2); 12-point dose response curve, read-out: Bio-assay IC50 BRD4(2)): 29.5 nM | binding activity with the BRD4 site 2 (BRD4(2)): excellent binding activity | IC50 (BRD4(1); 12-point dose response curve, read-out: Bio-assay IC50 BRD4(1)): 85 nM | binding activity with the BRD4 site 1 (BRD4(1)): excellent binding activity

Cc1sc2c(c1C)C(c1ccc(Cl)cc1)=N[C@@H](CC(=O)NCCCN1CCN(C)CC1)c1nnc(C)n1-2 (stereo in doubt) [(S)-JQ35]
IC50 (RIN-5F; Example 8 additional data, two values, read-out: IC50 Values, RIN-5F): 215 nM | IC50 (RIN-5F; Rattus norvegicus, Example 8 additional data, two values, read-out: IC50 Values, RIN-5F): 183 nM | IC50 (RIN-m5F; Example 8 additional data, cell viability after 168-192 total hours of culture, read-out: IC50 Values, RIN-m5F): 188 nM | IC50 (RIN-14B; Example 8 additional data, cell viability after 168-192 total hours of culture, read-out: IC50 Values, RIN-14B): 207 nM | cell viability at higher concentrations ([1]; Example 8): ~0% | IC50 ([1]; Rattus norvegicus, RIN-m5F, Example 8): < 200 nM | binding activity with the BRD4 site 2 (BRD4(2)): excellent binding activity | IC50 (RIN-m; Example 8 additional data, cell viability after 168-192 total hours of culture, read-out: IC50 Values, RIN-m): 151 nM | binding activity with the BRD4 site 1 (BRD4(1)): excellent binding activity

Cc1sc2c(c1C)C(c1ccc(Cl)cc1)=N[C@@H](CC(=O)OC(C)(C)C)c1nnc(C)n1-2 [(S)-JQ1, (S)-tert-Butyl 2-(4-(4-chlorophenyl)-2,3,9-trimethyl-6H-thieno[3,2-f][1,2,4]triazolo [4,3-a][1,4]diazepin-6-yl)acetate]
IC50 (RIN-5F; Rattus norvegicus, read-out: IC50 Values, RIN-5F, Example 3, Table 1, duplicate data): 96 nM | IC50 (RIN-5F; Rattus norvegicus, read-out: IC50 Values, RIN-5F, Example 8 additional data, two values): 52 nM | IC50 (RIN-5F; read-out: IC50 Values, RIN-5F, Example 3, Table 1, duplicate data): 61 nM | IC50 (RIN-5F; read-out: IC50 Values, RIN-5F, Example 8 additional data, two values): 73.1 nM | IC50 (RIN-m5F; read-out: IC50 Values, RIN-m5F, Example 3, Table 1, cell viability after 168-192 total hours of culture): 31 nM | IC50 (RIN-m5F; read-out: IC50 Values, RIN-m5F, Example 8 additional data, cell viability after 168-192 total hours of culture): 51 nM | IC50 (RIN-14B; read-out: IC50 Values, RIN-14B, Example 3, Table 1, cell viability after 168-192 total hours of culture): 17 nM | IC50 (RIN-14B; read-out: IC50 Values, RIN-14B, Example 8 additional data, cell viability after 168-192 total hours of culture): 20.7 nM | cell viability at higher concentrations ([1]; Example 3): ~0% | cell viability at higher concentrations ([1]; Example 8): ~0% | IC50 ([1]; Rattus norvegicus, RIN-m5F): < 100 nM | IC50 ([1]; Example 8): < 100 nM | IC50 (RIN-m; read-out: IC50 Values, RIN-m, Example 3, Table 1, cell viability after 168-192 total hours of culture): 34 nM | IC50 (RIN-m; read-out: IC50 Values, RIN-m, Example 8 additional data, cell viability after 168-192 total hours of culture): 29.3 nM

Cc1sc2c(c1C)C(c1ccc(Cl)cc1)=N[C@@H](CC(=O)N/N=C/c1ncc[nH]1)c1nnc(C)n1-2 [(S)-JQ6]
binding activity with the BRD4 site 2 (BRD4(2)): excellent binding activity | binding activity with the BRD4 site 1 (BRD4(1)): excellent binding activity

Cc1sc2c(c1C)C(c1ccc(Cl)cc1)=N[C@@H](CC(=O)NCCc1cnc[nH]1)c1nnc(C)n1-2 [(S)-JQ8]
binding activity with the BRD4 site 2 (BRD4(2)): excellent binding activity | binding activity with the BRD4 site 1 (BRD4(1)): excellent binding activity

Cc1sc2c(c1C)C(c1ccc(Cl)cc1)=N[C@@H](CC(=O)NCCN1CCN(C)CC1)c1nnc(C)n1-2 [(S)-JQ13]
binding activity with the BRD4 site 2 (BRD4(2)): excellent binding activity | binding activity with the BRD4 site 1 (BRD4(1)): excellent binding activity

Cc1sc2c(c1C)C(c1ccc(Cl)cc1)=NC(CC(=O)NN)c1nnc(C)n1-2 (stereo not shown) [Compound 3]
activity in at least one biological assay [2]: showed activity

Cc1sc2c(c1C)C(c1ccc(Cl)cc1)=NC(CC(=O)OC(C)(C)C)c1nnc(C)n1-2 (stereo not shown) [JQ1, tert-Butyl 2-(4-(4-chlorophenyl)-2,3,9-trimethyl-6H-thieno[3,2-f][1,2,4]triazolo[4,3-a][1,4]diazepin-6-yl)acetate]
genes with decreased versus increased expression [3]: larger number of genes with decreased expression as compared to increased expression

CC(=O)O[C@H]1C(=O)[C@@]2(C)[C@H]([C@H](OC(=O)c3ccccc3)[C@]3(O)C[C@H](OC(=O)[C@H](O)[C@@H](NC(=O)c4ccccc4)c4ccccc4)C(C)=C1C3(C)C)[C@]1(OC(C)=O)CO[C@@H]1C[C@@H]2O [Paclitaxel, reference compound]
IC50 (RIN-5F; Example 3, Table 1, duplicate data, read-out: IC50 Values, RIN-5F): 3.14 nM | IC50 (RIN-5F; Rattus norvegicus, Example 3, Table 1, duplicate data, read-out: IC50 Values, RIN-5F): 1.63 nM | IC50 (RIN-m5F; Example 3, Table 1, cell viability after 168-192 total hours of culture, read-out: IC50 Values, RIN-m5F): 0.43 nM | IC50 (RIN-14B; Example 3, Table 1, cell viability after 168-192 total hours of culture, read-out: IC50 Values, RIN-14B): 1.33 nM | IC50 (RIN-m; Example 3, Table 1, cell viability after 168-192 total hours of culture, read-out: IC50 Values, RIN-m): 0.718 nM
